The text below walks through data of article PMC7191558, “Use of BODIPY-Labeled ATP Analogues in the Development and Validation of a Fluorescence Polarization-Based Assay for Screening of Kinase Inhibitors” (ACS Omega, 2020).

This assay has as its target T1, Protein Kinase A catalytic subunit (PKA) (Bos taurus, UniProt P00517).
T1 construct: gene PRKACA; catalytic subunit (from bovine heart, Merck)
In words: fluorescence polarization competition with BODIPY FL ATP-γ-S. Format: binding. A general note: Polarisation of emitted light reports the rotation of a fluorescent probe.

Structures are written as SMILES. pIC50: −log10 of the molar value.

Regarding `CC1CNCCN1S(=O)(=O)c1cccc2cnccc12` (stereo not shown) [H7], the pIC50 (usually the IC50 on a negative log10 scale, so that one unit is a factor of ten) is ~2.95.
